Experiments:
β1 integrin subunit = test: β1 integrin surface expression in HUVEC, flow cytometry; assay type: cell-based, human; details: ML 141 10 μM versus DMSO
Experimental: FIG. 10B is a graph illustrating that expression of the […] integrin subunit remains substantially unchanged in HUVEC incubated with DMSO or ML 141 (10 μM). Pretreated HUVEC were stained with PE conjugated anti-β1 and examined using flow cytometry (no difference between groups was detected, t-test, p>0.05).
To examine β1 surface expression, recycling of the integrin was terminated (4° C., 15 min) and HUVEC lifted from plates using cell scrapers. After washing in FACS buffer (2% BSA/0.1% sodium azide/PBS), cells were incubated with PE-conjugated anti-β1 (BD; 30 min, on ice), washed, fixed in FACS buffer containing 4% paraformaldehyde, and analyzed using an Accuri C6 flow cytometer (BD).

[1] = tested on: vinculin-containing adhesion complexes; test: Vinculin-containing adhesion complexes in HUVEC; assay type: cell-based, human; details: ML 141 10 μM, 18-20 h, vehicle control 64%
Experimental: FIG. 10A is an image depicting ML 141 inhibition of CDC42 limiting the formation of adhesion complexes. Human umbilical vein endothelial cells (HUVEC) were incubated (18-20 h) with the vehicle control dimethyl sulfoxide (DMSO) or with ML 141 (10 μM). Pretreated HUVEC were fixed, permeabilized, blocked, and stained with anti-vinculin followed by anti-mouse Alexa Fluor 488. Arrows indicate vinculin-containing complexes. Data are presented as the % of cells where vinculin-containing adhesion complexes were detected. 100-200 cells/treatment were evaluated from randomly selected fields (p<0.001 by χ^2). Scale bar 50 μm.

fibronectin = test: Fibronectin adhesion assay, HUVEC; assay type: cell-based, human; details: ML 141 10 μM, 18-20 h; re-plated 2 h; vehicle 24±4%
Experimental: FIG. 10C is a graph illustrating that ML 141 decreases cell adhesion to fibronectin-coated surface. HUVEC were pretreated as in FIGS. 10A and 10B, lifted from culture dishes using cell scrapers, and re-plated (2 h) onto non-tissue culture treated plates coated with fibronectin and blocked with bovine serum albumin. Following extensive washes, cells were recovered using trypsin and counted using an Accuri C6 flow cytometer (*p<0.05 by t-test on log-transformed data pooled from 2 independent experiments, n=8/treatment).
HUVEC were plated and pretreated as described for the invasion assay. 96-well, non-tissue culture treated plates (Sarstedt, Newton, N.C.) were coated with fibronectin (20 μg/ml; 2 h; 37° C.), washed with PBS, and blocked with bovine serum albumin (2%, 30 min, RT). HUVEC were lifted from the 35 mm dishes using cell scrapers, 100 μl counted for normalization using the Accuri C6, and 200 μl transferred to the 96-well plate (2 h, 5% CO2, 37° C.). After extensive washes in PBS, cells were removed from the plate using trypsin, washed in FACS buffer, fixed, and 100 μl counted. These cell counts were normalized to those that had been taken prior to plating on the fibronectin-coated plate.

Staphylococcus aureus = test: S. aureus invasion of serum-starved RAW 264.7 cells, CFU recovery; assay type: cell-based; details: treatment 1 hour, serum-starved conditions, 10 μM
Experimental: FIG. 5 is a graph illustrating ML 141 inhibiting invasion with shorter duration exposure under serum starved conditions. RAW 264.7 cells were serum-starved overnight then pretreated for 1 hour with the vehicle control dimethyl sulfoxide (DMSO) or with ML 141 (10 μM). Following infection with Staphylococcus aureus (1 hour), extracellular bacteria were eliminated using the antimicrobials gentamicin and lysostaphin (45 minutes), and intracellular bacteria recovered by permeabilizing the host cells. Serial dilutions of the recovered intracellular bacteria were incubated on tryptic soy agar, colonies enumerated, and colony forming units (CFU)/ml calculated (*less than vehicle control; p≤0.05 by Student's t-test; n=3/treatment). […]
Two days prior to the assay, TSB is inoculated with S. aureus (American Type Culture Collection #29213) and incubated overnight (225 rpm, 37° C.). […] To detect the level of infection using flow cytometry, cells that have been infected with fluorescently-labeled bacteria are washed extensively with PBS, lifted from 96-well plate by incubation with trypsin, washed extensively in FACS buffer (2% BSA/0.1% sodium azide/PBS), fixed (FACS buffer containing 0.74% formaldehyde), and are counted using an Accuri flow cytometer (BD, Franklin Lakes, N.J.). […]

SMILES: COc1ccc(C2CC(c3ccccc3)=NN2c2ccc(S(N)(=O)=O)cc2)cc1 (stereo not shown) [ML 141, 4-[3-(4-methoxyphenyl)-5-phenyl-3,4-dihydropyrazol-2-yl]benzenesulfonamide]
- expression of β1 integrin subunit (β1 integrin subunit): no difference
- % of cells with vinculin-containing adhesion complexes [1]: 37%
- adherence of HUVEC to fibronectin-coated plates (fibronectin): 14±2%
- inhibition of invasion, shorter exposure (Staphylococcus aureus): Inhibition is detectable
